This note sets out measurements from US9650372B2, “Molecules having pesticidal utility, and intermediates, compositions, and processes, related thereto” (priority 2015, dated 2017).

The subject of assay [1] is Beet Armyworm (Spodoptera exigua, LAPHEG). Put plainly: Bioassay on Beet Armyworm (BAW), 128-well diet tray assay. It counts as in vivo. The following applies: 168 h, 50 μg/cm^2 on artificial diet, second instar larvae, 25° C., five to seven days, average of eight wells, read-out: BAW % Control (or Mortality) rating. Here is the method:
(§1) Certain molecules disclosed in this document were tested against BAW and CL using procedures described in the following examples. In the reporting of the results, the “BAW & CL Rating Table” was used (See Table Section).
Bioassays on BAW were conducted using a 128-well diet tray assay. One to five second instar BAW larvae were placed in each well (3 mL) of the diet tray that had been previously filled with 1 mL of artificial diet to which 50 μg/cm^2 of the test molecule (dissolved in 50 μL of 90:10 acetone-water mixture) had been applied (to each of eight wells) and then allowed to dry. Trays were covered with a clear self-adhesive cover, vented to allow gas exchange, and held at 25° C., 14:10 light-dark for five to seven days. Percent mortality was recorded for the larvae in each well; activity in the eight wells was then averaged. The results are indicated in the table entitled “Table ABC: Biological Results” (See Table Section).

Assay [2] deals with Cabbage Looper (Trichoplusia ni, TRIPNI). The assay is described as follows: Bioassay on Cabbage Looper (CL), 128-well diet tray assay. It counts as in vivo. The settings on record: 168 h, 50 μg/cm^2 on artificial diet, second instar larvae, 25° C., five to seven days, average of eight wells, read-out: CL % Control (or Mortality) rating. Here is the method:
as §1
Bioassays on CL were conducted using a 128-well diet tray assay. One to five second instar CL larvae were placed in each well (3 mL) of the diet tray that had been previously filled with 1 mL of artificial diet to which 50 μg/cm^2 of the test molecule (dissolved in 50 μL of 90:10 acetone-water mixture) had been applied (to each of eight wells) and then allowed to dry. Trays were covered with a clear self-adhesive cover, vented to allow gas exchange, and held at 25° C., 14:10 light-dark for five to seven days. Percent mortality was recorded for the larvae in each well; activity in the eight wells was then averaged. The results are indicated in the table entitled “Table ABC: Biological Results” (See Table Section).

For `Cc1ccc(C(C)C)c(N2C(=O)CS/C2=N\C(=O)Nc2ccc(-c3ncn(CCc4ccc(OC(F)(F)F)cc4)n3)cc2)c1` [Molecule F1, (Z)-1-(3-(2-isopropyl-5-methylphenyl)-4-oxothiazolidin-2-ylidene)-3-(4-(1-(4-(trifluoromethoxy)phenethyl)-1H-1,2,4-triazol-3-yl)phenyl)urea], the mortality at 50 µg/cm2 in assay [1] and in assay [2] was 50 to 100% throughout.

`CC(C)c1ccccc1N1C(=O)CS/C1=N\C(=O)Nc1ccc(-c2ncn(CCCC(F)(F)C(F)(F)F)n2)cc1` [Molecule F2, (Z)-1-(3-(2-Isopropylphenyl)-4-oxothiazolidin-2-ylidene)-3-(4-(1-(4,4,5,5,5-pentafluoropentyl)-1H-1,2,4-triazol-3-yl)phenyl)urea]: the mortality at 50 µg/cm2 in assay [1] and in assay [2] was 50 to 100% in each case.

As to `CC(C)c1ccccc1N1C(=O)CS/C1=N\C(=O)Nc1ccc(-c2ncn(Cc3ccc(C(F)(F)F)cc3)n2)cc1` [Molecule F3, (Z)-1-(3-(2-Isopropylphenyl)-4-oxothiazolidin-2-ylidene)-3-(4-(1-(4-(trifluoromethyl)benzyl)-1H-1,2,4-triazol-3-yl)phenyl)urea], the mortality at 50 µg/cm2 in assay [1] was 0 to 50%; in assay [2], 50 to 100%.

As to `CC(C)c1ccccc1N1C(=O)CS/C1=N\C(=O)Nc1ccc(-c2ncn(CCCCC(F)(F)F)n2)cc1` [Molecule F4, (Z)-1-(3-(2-Isopropylphenyl)-4-oxothiazolidin-2-ylidene)-3-(4-(1-(5,5,5-trifluoropentyl)-1H-1,2,4-triazol-3-yl)phenyl)urea], the mortality at 50 µg/cm2 in assay [1] and in assay [2] was 50 to 100% each time.

As to `CC(C)c1ccccc1N1C(=O)CS/C1=N\C(=O)Nc1ccc(-c2ncn(CCC(F)(F)C(F)(F)C(F)(F)F)n2)cc1` [Molecule F5, (Z)-1-(4-(1-(3,3,4,4,5,5,5-heptafluoropentyl)-1H-1,2,4-triazol-3-yl)phenyl)-3-(3-(2-isopropylphenyl)-4-oxothiazolidin-2-ylidene)urea], the mortality at 50 µg/cm2 in assay [1] and in assay [2] was 50 to 100% in each case.
